Assay type in all cases: cell-based
For data set [1], the target named is recombinant perforin (UniProt P10820). The note with it: read-out: Jurkat IC50; recombinant perforin pre-incubated 30 min with compound; 51Cr-labelled Jurkat cells, 0.1% BSA, 37° C. 4 hours. The protocol: Inhibition of Perforin-Mediated Lysis of Jurkat Cells
The ability of the compounds to inhibit the lysis of nucleated (Jurkat T lymphoma) cells in the presence of 0.1% BSA, as measured by release of ^51Cr was measured. Jurkat target cells were labelled by incubation in medium with 100 μCi ^51Cr for one hour. The cells were then washed three times to remove unincorporated isotope and re-suspended at 1×10^5 cells per mL in RPMI buffer supplemented with 0.1% BSA. […] The supernatant was collected and assessed for its radioactive content on a gamma counter (Wallac Wizard 1470 automatic gamma counter). Each data point was performed in triplicate and an IC50 was calculated from the range of concentrations described to above.

In data set [2] the test system is KHYG-1 NK cell-mediated lysis of K562 cells. Briefly: Inhibition of KHYG-1 NK cell-mediated lysis of K562 cells (51Cr release). Particulars: K562 target cells, Effector:Target 2:1, 4 hours 37° C. The protocol:
Inhibition of KHYG-1 NK Cell-Mediated lysis of K562 Cells
KHYG-1 cells were washed and resuspended in RPMI+0.1% BSA at 4×10^5 cells/ml and 50 μl of KHYG-1 cells were dispensed to each well of a 96-well V-bottom, plate. Test compounds were added to KHYG-1 cells at various concentrations up to 20 μM and incubated at RT for 20 minutes. 1×10^6 K562 target cells were labelled with 75 μCi ^51Cr in 200 μl RPMI for 90 mins at 37° C., cells were washed as described above and resuspended in 5 ml RPMI+0.1% BSA. 50 μl of ^51Cr labelled K562 leukemia target cells were added to each well of the KHYG-1 plate (Effector:Target 2:1) and incubated at 37° C. for 4 hours. ^51Cr release was assayed using a Skatron Harvesting Press and radioactivity estimated on a Wallac Wizard 1470 Automatic Gamma counter (Turku, Finland). The percentage of specific cytotoxicity was calculated by the formula: […]
and expressed as the mean of triplicate assays +/−standard error of the mean.

Data set [3] has as its system KHYG-1 NK cells. Briefly: Toxicity to KHYG-1 NK cells (trypan blue viability). Particulars: viable cells as percentage of total (% viability), 18 to 24 hours. The protocol: Toxicity to KHYG-1 NK Cells
KHYG-1 cells were washed and resuspended in RPMI+0.1% BSA at 4×10^5 cells/ml and 50 μl of KHYG-1 cells were dispensed to each well of a 96-well V-bottom plate. Test compounds were added to KHYG-1 cells at a concentration of 20 μM and incubated at RT for 20 minutes. 100 μL of RPMI 0.1% BSA was added and the cells were incubated for 4 hours at 37° C. then washed ×3 in RPMI+0.1% BSA. Cells were then resuspended in 200 μl of complete medium and incubated for 18 to 24 hours at 37° C. Trypan blue was added to each well and viable (clear) cells counted as a percentage of total (clear+blue) cell number (% viability).

recombinant perforin, sequence (P10820 whole entry): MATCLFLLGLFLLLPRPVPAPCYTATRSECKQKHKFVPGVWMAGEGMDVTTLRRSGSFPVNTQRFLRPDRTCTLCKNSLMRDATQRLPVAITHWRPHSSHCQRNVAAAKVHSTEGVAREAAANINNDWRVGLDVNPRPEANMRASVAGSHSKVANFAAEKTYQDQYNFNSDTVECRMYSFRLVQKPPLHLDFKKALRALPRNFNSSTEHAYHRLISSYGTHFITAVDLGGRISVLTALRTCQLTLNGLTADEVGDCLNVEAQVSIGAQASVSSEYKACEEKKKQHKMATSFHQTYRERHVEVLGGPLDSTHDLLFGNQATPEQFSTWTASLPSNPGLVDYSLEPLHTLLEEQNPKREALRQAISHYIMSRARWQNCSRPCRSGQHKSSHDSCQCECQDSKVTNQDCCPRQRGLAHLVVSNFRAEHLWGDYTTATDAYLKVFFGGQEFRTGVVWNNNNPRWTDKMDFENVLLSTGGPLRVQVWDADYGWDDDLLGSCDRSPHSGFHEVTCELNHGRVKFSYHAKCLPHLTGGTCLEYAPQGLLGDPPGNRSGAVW

For `N#Cc1cccc(-c2ccc(/C=C3/NC(=S)NC3=O)s2)c1` [Cmpd 34, (E,Z)-3-(5-((5-Oxo-2-thioxoimidazolidin-4-ylidene)methyl)thiophen-2-yl)benzonitrile], in data set [1], the IC50 turned out to be 9.68 µM. Further, the inhibition at 20 µM in data set [2] was found to be 97%. In addition, the “percent viable KHYG-1 cells (trypan blue) at 20 μM” value (“percent viable KHYG-1 cells” for short) in data set [3] is reported as 99%.
In the case of `O=C1NC(=S)N/C1=C/c1ccc(-c2ccc(O)cc2)s1` [Cmpd 35, (E,Z)-5-((5-(4-Hydroxyphenyl)thiophen-2-yl)methylene)-2-thioxoimidazolidin-4-one], in data set [1], the IC50 stood at 7.72 µM. The compound also gave an inhibition at 20 µM in data set [2] of 90%. In addition, the “percent viable KHYG-1 cells” value in data set [3] came out at 93%.
The matching figures for `CNC(=O)c1ccc(-c2ccc(/C=C3/NC(=S)NC3=O)s2)cc1` [Cmpd 38, (E,Z)-N-Methyl-4-(5-((5-oxo-2-thioxoimidazolidin-4-ylidene)methyl)thiophen-2-yl)benzamide]: 4.53 µM, 49% and 97%.
For `CN(C)C(=O)c1ccc(-c2ccc(/C=C3/NC(=S)NC3=O)s2)cc1` [Cmpd 39, (E,Z)-N,N-Dimethyl-4-(5-((5-oxo-2-thioxoimidazolidin-4-ylidene)methyl)thiophen-2-yl)benzamide], in that order: 6.93 µM, 89% and 95%.
As to `O=C1NC(=S)N/C1=C/c1ccc(-c2ccc(C(=O)NCC(O)CO)cc2)s1` (stereo not drawn) [Cmpd 40, (E,Z)-N-(2,3-Dihydroxypropyl)-4-(5-((5-oxo-2-thioxoimidazolidin-4-ylidene)methyl)thiophen-2-yl)benzamide], in data set [1], the IC50 is 2.44 µM. Also, at 20 µM the inhibition in data set [2] was 47%. Moreover, in data set [3], the “percent viable KHYG-1 cells” value came to 82%.
As to `CC(O)CNC(=O)c1ccc(-c2ccc(/C=C3/NC(=S)NC3=O)s2)cc1` (stereo not drawn) [Cmpd 41, (E,Z)-N-(2-Hydroxypropyl)-4-(5-((5-oxo-2-thioxoimidazolidin-4-ylidene)methyl)thiophen-2-yl)benzamide], the IC50 in data set [1] stood at 6.5 µM. Besides, at 20 µM the inhibition in data set [2] was 60%. Moreover, the “percent viable KHYG-1 cells” value in data set [3] came out at 91%.
As to `O=C1NC(=S)N/C1=C/c1ccc(-c2ccc(C(=O)NCCCN3CCOCC3)cc2)s1` [Cmpd 43, (E,Z)-N-(3-Morpholinopropyl)-4-(5-((5-oxo-2-thioxoimidazolidin-4-ylidene)methyl)thiophen-2-yl)benzamide], the 50% inhibitory concentration (IC50) in data set [1] stood at 8.13 µM. In data set [2], at 20 µM the inhibition was 81%. In addition, the “percent viable KHYG-1 cells” value in data set [3] was determined as 89%.
With `O=C1NC(=S)N/C1=C/c1ccc(-c2ccc3c(c2)CNC3=O)s1` [Cmpd 46, (E,Z)-5-(5-((5-Oxo-2-thioxoimidazolidin-4-ylidene)methyl)thiophen-2-yl)isoindolin-1-one], the half-maximal inhibitory concentration (IC50) in data set [1] was determined as 2.55 µM. In data set [2], this compound showed an inhibition at 20 µM of 70%. Moreover, the “percent viable KHYG-1 cells” value in data set [3] amounted to 98%.
In the case of `O=C1NC(=O)/C(=C\c2ccc(-c3ccc4c(c3)CNC4=O)s2)N1` [Cmpd 47, (E,Z)-5-((5-(1-Oxoisoindolin-5-yl)thiophen-2-yl)methylene)imidazolidine-2,4-dione], the IC50 in data set [1] worked out at 0.4 µM. This compound also gave an inhibition at 20 µM in data set [2] of 73%. In addition, the “percent viable KHYG-1 cells” value in data set [3] is 92%.
With `O=C1NC(=S)N/C1=C\c1ccc(-c2ccc3c(c2)CNC3=O)cn1` [Cmpd 51, (E,Z)-5-(6((5-Oxo-2-thioxoimidazolidin-4-ylidene)methyl)pyridin-3-yl)isoindolin-1-one], the IC50 in data set [1] was 0.63 µM. The compound further displayed an inhibition at 20 µM in data set [2] of 19%. For the same compound, the “percent viable KHYG-1 cells” value in data set [3] turned out to be 97%.
For `CC(C)N1Cc2cc(-c3ccc(/C=C4/NC(=S)NC4=O)s3)ccc2C1=O` [Cmpd 52, (E,Z)-2-Isopropyl-5-(5-((5-oxo-2-thioxoimidazolidin-4-ylidene)methyl)thiophen-2-yl)isoindolin-1-one], in data set [1], the IC50 turned out to be 4.42 µM. In data set [2], this compound showed an inhibition at 20 µM of 77%. For the same compound, the “percent viable KHYG-1 cells” value in data set [3] came to 92%.
In the case of `CCN1Cc2cc(-c3ccc(/C=C4/NC(=S)NC4=O)s3)ccc2C1=O` [Cmpd 62, (E,Z)-2-Ethyl-5-(5-((5-oxo-2-thioxoimidazolidin-4-ylidene)methyl)thiophen-2-yl)isoindolin-1-one], in data set [1], the 50% inhibitory concentration (IC50) is 0.6 µM. In addition, testing at 20 µM in data set [2] gave an inhibition of 84%. For the same compound, the “percent viable KHYG-1 cells” value in data set [3] is given as 79%.
Take `CCCN1Cc2cc(-c3ccc(/C=C4/NC(=S)NC4=O)s3)ccc2C1=O` [Cmpd 63, (E,Z)-5-(5-((5-Oxo-2-thioxoimidazolidin-4-ylidene)methyl)thiophen-2-yl)-2-propylisoindolin-1-one]: the IC50 in data set [1] was 1.52 µM. The same compound came in with an inhibition at 20 µM in data set [2] of 95%. Also, the “percent viable KHYG-1 cells” value in data set [3] is 94%.
As to `CCCCN1Cc2cc(-c3ccc(/C=C4/NC(=S)NC4=O)s3)ccc2C1=O` [Cmpd 64, (E,Z)-2-Butyl-5-(5-((5-oxo-2-thioxoimidazolidin-4-ylidene)methyl)thiophen-2-yl)isoindolin-1-one], in data set [1], the IC50 was found to be 0.99 µM. The compound further gave an inhibition at 20 µM in data set [2] of 96%. The “percent viable KHYG-1 cells” value in data set [3] came out at 94%.
On to `CCOC(=O)N1Cc2cc(-c3ccc(/C=C4/NC(=S)NC4=O)s3)ccc2C1=O` [Cmpd 65, (E,Z)-Ethyl 1-oxo-5-(5-((5-oxo-2-thioxoimidazolidin-4-ylidene)methyl)thiophen-2-yl)isoindoline-2-carboxylate], for which the IC50 in data set [1] was found to be 0.99 µM. In addition, testing at 20 µM in data set [2] gave an inhibition of 72%. The “percent viable KHYG-1 cells” value in data set [3] was 96%.
Turning to `CC(=O)N1Cc2cc(-c3ccc(/C=C4/NC(=S)NC4=O)s3)ccc2C1=O` [Cmpd 66, (E,Z)-2-Acetyl-5-(5-((5-oxo-2-thioxoimidazolidin-4-ylidene)methyl)thiophen-2-yl)isoindolin-1-one], the IC50 in data set [1] came out at 0.93 µM. This compound yielded an inhibition at 20 µM in data set [2] of 49%. The “percent viable KHYG-1 cells” value in data set [3] is listed as 85%.
Take `CC(=O)OCCN1Cc2cc(-c3ccc(/C=C4/NC(=S)NC4=O)s3)ccc2C1=O` [Cmpd 68, (E,Z)-2-(1-Oxo-5-(5-((5-oxo-2-thioxoimidazolidin-4-ylidene)methyl)thiophen-2-yl)isoindolin-2-yl)ethyl acetate]: the IC50 in data set [1] was determined as 1.17 µM. In data set [2], this compound returned an inhibition at 20 µM of 86%. Further, the “percent viable KHYG-1 cells” value in data set [3] came to 84%.
As for `CC1c2cc(-c3ccc(/C=C4/NC(=S)NC4=O)s3)ccc2C(=O)N1C` (stereo not drawn) [Cmpd 69, (E,Z)-2,3-Dimethyl-5-(5-((5-oxo-2-thioxoimidazolidin-4-ylidene)methyl)thiophen-2-yl)isoindolin-1-one], the IC50 in data set [1] amounted to 3.21 µM. Further, 20 µM produced 100% inhibition in data set [2]. In addition, the “percent viable KHYG-1 cells” value in data set [3] is given as 95%.
With `O=C1NC(=S)N/C1=C/c1ccc(-c2ccc3c(c2)CN(CCO)C3=O)s1` [Cmpd 70, (E,Z)-2-(2-Hydroxyethyl)-5-(5-((5-oxo-2-thioxoimidazolidin-4-ylidene)methyl)thiophen-2-yl)isoindolin-1-one], the 50% inhibitory concentration (IC50) in data set [1] was determined as 0.78 µM. Moreover, at 20 µM the inhibition in data set [2] was 38%. The “percent viable KHYG-1 cells” value in data set [3] is on record as 77%.
The matching figures for `O=C1NC(=S)N/C1=C/c1ccc(-c2ccc3c(c2)CN(CCCO)C3=O)s1` [Cmpd 71, (E,Z)-2-(3-Hydroxypropyl)-5-(5-((5-oxo-2-thioxoimidazolidin-4-ylidene)methyl)thiophen-2-yl)isoindolin-1-one]: 0.53 µM, 62% and 88%.
Turning to `O=C1NC(=S)N/C1=C/c1ccc(-c2ccc3c(c2)C(=O)NC3)s1` [Cmpd 72, (E,Z)-6-(5-((5-Oxo-2-thioxoimidazolidin-4-ylidene)methyl)thiophen-2-yl)isoindolin-1-one], the IC50 in data set [1] worked out at 1.38 µM. The compound also came in with an inhibition at 20 µM in data set [2] of 58%. Besides, the “percent viable KHYG-1 cells” value in data set [3] worked out at 81%.
Turning to `CN1Cc2ccc(-c3ccc(/C=C4/NC(=S)NC4=O)s3)cc2C1=O` [Cmpd 73, (E,Z)-2-Methyl-6-(5-((5-oxo-2-thioxoimidazolidin-4-ylidene)methyl)thiophen-2-yl)isoindolin-1-one], in data set [1], the IC50 stood at 1.89 µM. In data set [2], the inhibition at 20 µM was determined as 60%. Besides, in data set [3], the “percent viable KHYG-1 cells” value was found to be 85%.

The IC50 is the concentration at which inhibition is half-maximal. As a reminder, the inhibition is the relative decrease from the control value, in per cent.

The values are drawn from patent US20130065897A1, “COMPOUNDS, PREPARATION AND USES THEREOF” (PETER MACCALLUM CANCER INSTITUTE, priority 2009, published 2013).
